Measurements taken from ChEMBL document CHEMBL4393730, “Thiazolidinedione and thiazole derivatives potentiate norfloxacin activity against NorA efflux pump over expression in Staphylococcus aureus 1199B strains” (Bioorg Med Chem, 2019).

Columns and labels:
[1] = Cytotoxicity against mouse L929 cells assessed as cell growth inhibition at 50 ug/ml measured after 72 hrs by MTT method relative to control; assay type: cell-based; settings: read-out: GI
Staphylococcus aureus [2] = experiment: Antibacterial activity against wild type Staphylococcus aureus 1199 devoid of norA efflux pump assessed as norfloxacin MIC measured after 24 hrs by broth microdilution method (reference value: 64 +/- 1 microg/ml); assay type: functional; settings: Staphylococcus aureus, 1199, 24 h
Staphylococcus aureus [3] = experiment: Antibacterial activity against wild type Staphylococcus aureus 1199 devoid of NorA efflux pump measured after 24 hrs by broth microdilution method; assay type: functional; settings: Staphylococcus aureus, 1199, 24 h
Staphylococcus aureus [4] = experiment: Antibacterial activity against multidrug resistant Staphylococcus aureus 1199B mutant strain carrying NorA efflux pump assessed as growth inhibition measured after 24 hrs by broth microdilution method; assay type: functional
[5] = molecular target: T1, Quinolone resistance protein NorA (Staphylococcus aureus) (UniProt P0A0J7); experiment: Inhibition of NorA efflux pump in multidrug resistant Staphylococcus aureus 1199B mutant assessed as norfloxacin MIC measured after 24 hrs by broth microdilution method (reference value: 256 +/- 1 microg/ml)
T1 sequence (whole entry): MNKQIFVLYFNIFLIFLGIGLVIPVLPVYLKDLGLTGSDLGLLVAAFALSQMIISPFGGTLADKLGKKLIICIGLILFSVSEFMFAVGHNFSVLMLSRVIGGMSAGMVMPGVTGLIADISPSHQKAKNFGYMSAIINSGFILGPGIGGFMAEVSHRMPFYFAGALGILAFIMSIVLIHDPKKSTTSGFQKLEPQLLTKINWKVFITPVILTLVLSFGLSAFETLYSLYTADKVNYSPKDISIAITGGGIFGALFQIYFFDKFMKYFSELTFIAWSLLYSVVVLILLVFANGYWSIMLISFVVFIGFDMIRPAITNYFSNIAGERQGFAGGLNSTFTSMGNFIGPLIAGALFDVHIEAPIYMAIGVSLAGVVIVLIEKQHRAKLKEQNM

[6] = molecular target: T1, Quinolone resistance protein NorA (Staphylococcus aureus); experiment: Inhibition of NorA efflux pump in multidrug resistant Staphylococcus aureus 1199B mutant assessed as reduction in norfloxacin MIC measured after 24 hrs by broth microdilution method relative to norfloxacin
Staphylococcus aureus [7] = experiment: Antibacterial activity against wild type Staphylococcus aureus 1199 devoid of norA efflux pump assessed as reduction in norfloxacin MIC measured after 24 hrs by broth microdilution method relative to norfloxacin; assay type: functional

`COc1ccc(Br)cc1/C=N/Nc1nc(-c2ccc(-c3ccccc3)cc2)cs1` showed an inhibition at 72 h, 50 ug/ml [1] of 15%, an MIC (Staphylococcus aureus [2]) of 1020 µg/mL and an MIC (Staphylococcus aureus [3]) of over 1020 µg/mL. For the same compound, the MIC (Staphylococcus aureus [4]) was over 1020 µg/mL and the MIC [5] was 1020 µg/mL.

`COc1ccc(Br)cc1/C=N/Nc1nc(-c2ccc(Cl)cc2)cs1` showed an inhibition at 72 h, 50 ug/ml [1] of 30.1%, an MIC (Staphylococcus aureus [2]) of 0.63 µg/mL and an MIC (Staphylococcus aureus [3]) of over 1020 µg/mL. The fold change (FC) [6] was 3, the “fold change (FC)” value (Staphylococcus aureus [7]) was 3 and the MIC (Staphylococcus aureus [4]) was over 1020 µg/mL. The MIC [5] was 40.3 µg/mL.

`COc1ccc(Br)cc1/C=N/Nc1nc(-c2ccc(Br)cc2)cs1` gave an inhibition at 72 h, 50 ug/ml [1] of 17.3%, an MIC (Staphylococcus aureus [2]) of 16 µg/mL and an MIC (Staphylococcus aureus [3]) of over 1020 µg/mL. The fold change (FC) [6] was 3, the “fold change (FC)” value (Staphylococcus aureus [7]) was 3 and the MIC (Staphylococcus aureus [4]) was over 1020 µg/mL. For the same compound, the MIC [5] was 64 µg/mL.

In the case of `COc1ccc(Br)cc1/C=N/Nc1nc(-c2ccc([N+](=O)[O-])cc2)cs1`, the inhibition at 72 h, 50 ug/ml [1] is reported as 39.9%, the MIC (Staphylococcus aureus [2]) is reported as 5 µg/mL and the MIC (Staphylococcus aureus [3]) is reported as over 1020 µg/mL. The MIC (Staphylococcus aureus [4]) was over 1020 µg/mL and the MIC [5] was 128 µg/mL.

`COc1ccc(Br)cc1/C=N/Nc1nc(-c2ccc(F)cc2)cs1` showed an inhibition at 72 h, 50 ug/ml [1] of 31.2%, an MIC (Staphylococcus aureus [2]) of 1020 µg/mL and an MIC (Staphylococcus aureus [3]) of over 1020 µg/mL. It also gave an MIC (Staphylococcus aureus [4]) of over 1020 µg/mL and an MIC [5] of 1020 µg/mL.

With `COc1ccc(Br)cc1/C=N/Nc1nc(-c2ccccc2)cs1` the inhibition at 72 h, 50 ug/ml [1] was 24.4%, the MIC (Staphylococcus aureus [2]) was 0.5 µg/mL and the MIC (Staphylococcus aureus [3]) was over 1020 µg/mL. The fold change (FC) [6] was 3, the “fold change (FC)” value (Staphylococcus aureus [7]) was 3 and the MIC (Staphylococcus aureus [4]) was over 1020 µg/mL. It also gave an MIC [5] of 50.8 µg/mL.
